Here are results for two substances from patent US7033829B2, “Method to inhibit cell growth using oligonucleotides” (Trustees of Boston University, priority 2000, dated 2006).

{P} = phosphate

The subject of data set [1] is Human cervical carcinoma cells (HeLa cells). Description: Cell growth of HeLa cells. The following applies: 100 μM; 1, 4 and 6 days after dosage. Type of data set: cell-based. How it is done: Human cervical carcinoma cells (HeLa cells) were maintained in DME+10% calf serum and dosed with either water (diluent) or 100 μM T2. Cells were collected 1, 4 and 6 days after dosage and counted by Coulter™ counter.

For data set [2], the system named is Normal human neonatal fibroblasts. Description: Cell growth of normal neonatal fibroblasts. To be noted: 100 μM. In kind it is cell-based. How it is done:
Normal human neonatal fibroblasts were plated in Falcon P35 culture dishes at a density of 9×10^4 cells/dish. The culture medium was DME+10% calf serum, 2 ml per plate. One day after plating, cultures were supplemented with either 100 μM T2 in DME or 100 μM A2 in DME, or water (control). Two plates were collected and counted before the additions to give a starting, or “day 0,” reading. Duplicate plates of each condition were harvested through five days after addition of the supplements and cell number determined. All cell counts were done by Coulter™ Counter.
In a second experiment, normal human neonatal fibroblasts were plated and cultured, as described above in Example 1 for SCC12F cells. Cultures were supplemented with either 100 μM T2 or water (control), and cells were harvested for cell counts. The cell yield in fibroblast cultures treated with T2 was reduced by 40% compared to that of paired control cultures after three days (FIG. 8). This corresponds to 4 population doublings in this time for control cells, compared with 3.6 doublings for T2-treated cells.

A further data set concerns TNF-α gene. Description: TNFα promoter CAT reporter transgene in skin. In kind it is in vivo, mice. The following applies: intracutaneous pTpT 100 μM; LPS 1 μg/ml. How it is done:
In another experiment, TNF-α gene activation was measured by utilizing mice carrying a CAT reporter transgene bearing the entire TNFα promoter and 3′-untranslated region. Transgenic mice were subjected to the following treatment prior to skin assay for CAT expression: UVB irradiation (200–700 J/m^2), intracutaneous injection of pTpT (100 μM); lipopolysaccharide (LPS 1 μg/ml) as positive control, or vehicle alone.

In the next data set the test system is melanin in ear skin. Description: In vivo melanogenic activity on ears (Fontana Masson). On the set-up: species or system mice. To be noted: 100 μM once daily in propylene glycol; 15 days. How it is done: In another experiment, mice were treated once daily with either 100 μM pTpT or SEQ ID NO: 1 containing a 5′ phosphate in propylene glycol on one ear, or vehicle alone on the other ear. After 15 days, when the ears were sectioned and stained with Fontana Masson to detect melanin compared to vehicle controls, there was a 70% increase in pigmentation in pTpT-treated ears and a 250% increase with SEQ ID NO: 1. Thus, both compounds comprising as few as 2 and as many as 9 nucleotides are effective at producing the in vitro UV-mimetic effects in vivo.

The subject of the next data set is mouse skin. Description: Photodamage of UVB-irradiated XPA+/+ and XPA−/− mouse skin. Type of data set: in vivo. To be noted: XPA−/− mice; 72 hours after last UV (diluent 15±5). The source says: Patients with a mutated xeroderma pigrnentosum group A (XPA) gene have a greater than 1000 fold increased risk of UV-induced skin cancer. XPA^−/− mice mimic the human syndrome [Kraemer, K. et al., pp. 256–261 In: Molecular Biology of Aging (Bohr, V. A., et al., eds.) Munksgaard, Copenhagen, 1999]. We have previously shown that oligonucleotides, particularly thymidine dinucleotide (pTT) and pGAGTATGAG (SEQ ID NO:1) that are partial homologs of the telomere overhang tandem repeat TTAGGG (SEQ ID NO:11), increase levels of proteins involved in nucleotide excision repair and enhance the DNA repair rate. […] The mice were UV irradiated on day 5 with a previously determined erythemogenic UVB dose. […] Seventy-two hours after the last dose of […], the mouse skin was processed histologically to assess general morphology, proliferation (Ki-67) [Ohike N. and T Morohoshi, Pathol Int (2001), 51:770–777; Billgren, A. M. et al., Breast Cancer Res Treat (2002), 71:161–170], cyclobutane pyrimidine dimers (CPDs) determined by specific antibody binding, and on-going DNA repair [proliferating cell nuclear antigen (PCNA); see Savio, M. et al., Carcinogenesis (1998) 19:591–596; Rudolph, P. et al., Hum Pathol (1998) 29:1480–1487].

For the substance thymidine dinucleotide [pTpT], the cell growth rate result in data set [1] is given as “marked decreases in cell growth rate”. Moreover, the “cell yield reduced compared to paired control cultures” value in data set [2] (after three days) was found to be 40%. Also, the population doublings in data set [2] (three days (control 4)) is given as 3.6. Further, in the data set with TNF-α gene, the “CAT activity in skin” value is “CAT activity was detected”. Besides, in the data set with melanin in ear skin, the “increase in pigmentation compared to vehicle controls” value is on record as 70%. Moreover, the “CPD (+) cells per 400× microscopic field” value in the data set with mouse skin was “none”.
Consider “pGAGTATGAG (DNA, 5' {P}, backbone not given here) [SEQ ID NO: 1]”, for which the “increase in pigmentation compared to vehicle controls” value in the data set on melanin in ear skin worked out at 250%. Further, the “CPD (+) cells per 400× microscopic field” value with mouse skin was “none”.
